Data from ChEMBL document CHEMBL1201862, “PubChem BioAssay data set” (2004).
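Step 1: Grow cells in 96-well plates. Step 2: Expose to compound for 48 hours at 5 concentrations. Step 3: Interpolate endpoints linearly; if unreached, use highest concentration. GI50 is the concentration that inhibits growth by half.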 The source made the active and inactive calls. Cut-off read from the data, not from the text of the source: active = GI50 up to about 1.1 µM and inactive = higher.

Experiments:
Assay in all cases: NCI tumour cell line growth inhibition, 48 h
786-0 = test system: 786-0
CAKI-1 = test system: CAKI-1
DU-145 = test system: DU-145
HCC 2998 = test system: HCC 2998
HCT-15 = test system: HCT-15
HOP-92 = test system: HOP-92
K562 = test system: K562
MDA-MB-231 = test system: MDA-MB-231
NCI/ADR-RES = test system: NCI/ADR-RES
OVCAR-3 = test system: OVCAR-3
OVCAR-5 = test system: OVCAR-5
PC-3 = test system: PC-3
SF-268 = test system: SF-268
SF-539 = test system: SF-539
SNB-75 = test system: SNB-75
SW-620 = test system: SW-620
UO-31 = test system: UO-31
MCF7 = test system: MCF7
T47D = test system: T47D

Row | SMILES | GI50 (786-0) | GI50 (CAKI-1) | GI50 (DU-145) | GI50 (HCC 2998) | GI50 (HCT-15) [µM] | GI50 (HOP-92) | GI50 (K562) | GI50 (MDA-MB-231) | GI50 (NCI/ADR-RES) | GI50 (OVCAR-3) | GI50 (OVCAR-5) | GI50 (PC-3) | GI50 (SF-268) | GI50 (SF-539) | GI50 (SNB-75) | GI50 (SW-620) | GI50 (UO-31) | GI50 (MCF7) | GI50 (T47D)
1 | C=C1C(=O)C23C(O)CC4C(C)(C)CCC(O)C4(C)C2CC(OC(C)=O)C1[C@H]3O (stereo partly drawn) | 2.4 µM (inactive) | 2.37 µM (inactive) | > 10 µM (inactive) | 4.06 µM (inactive) | 2.06 | 2.26 µM (inactive) | 1.84 µM (inactive) | 3.27 µM (inactive) | 15.3 µM (inactive) | 6.18 µM (inactive) | 9.75 µM (inactive) | 11.4 µM (inactive) | 4.49 µM (inactive) | 3.5 µM (inactive) | 8.61 µM (inactive) | 1.01 µM (active) | 15.3 µM (inactive) | – | –
2 | NC(=O)c1csc(C2OC(COP(=O)(O)CP(=O)(O)OCC3OC(n4cnc5c(N)ncnc54)C(O)C3O)C(O)C2O)n1 (stereo not drawn) | > 100 µM (inactive) | > 100 µM (inactive) | – | > 100 µM (inactive) | 78.3 | > 100 µM (inactive) | 55.3 µM (inactive) | – | – | > 100 µM (inactive) | > 100 µM (inactive) | – | > 100 µM (inactive) | > 100 µM (inactive) | > 100 µM (inactive) | > 100 µM (inactive) | > 100 µM (inactive) | – | –
3 | CC(C)(C)C(=O)Cc1cc2c(cc1C(=O)O)S(=O)(=O)NC(C(C)(C)C)=C2 | > 100 µM (inactive) | > 100 µM (inactive) | – | – | – | > 100 µM (inactive) | > 100 µM (inactive) | – | – | > 100 µM (inactive) | > 100 µM (inactive) | – | > 100 µM (inactive) | – | > 100 µM (inactive) | > 100 µM (inactive) | > 100 µM (inactive) | – | –
4 | COc1ccc(C2S/C(=C\c3cc(OC)c(OC)c(OC)c3)C(=O)N2NC(=O)Cc2ccccc2)cc1 (stereo not drawn) | > 100 µM (inactive) | > 100 µM (inactive) | – | – | > 100 | > 100 µM (inactive) | > 100 µM (inactive) | – | – | – | > 100 µM (inactive) | – | > 100 µM (inactive) | > 100 µM (inactive) | 67.9 µM (inactive) | > 100 µM (inactive) | 48 µM (inactive) | – | –
5 | CC(Oc1cc2oc(=O)cc(-c3ccccc3)c2cc1Cl)C(=O)O (stereo not drawn) | > 100 µM (inactive) | > 100 µM (inactive) | – | > 100 µM (inactive) | – | > 100 µM (inactive) | > 100 µM (inactive) | – | – | > 100 µM (inactive) | – | – | > 100 µM (inactive) | > 100 µM (inactive) | > 100 µM (inactive) | > 100 µM (inactive) | > 100 µM (inactive) | – | –
6 | N/C(=N\O)N/N=C/c1ccc2c(c1)OCO2 | 12.9 µM (inactive) | 30.3 µM (inactive) | 7.16 µM (inactive) | 35.6 µM (inactive) | 22 | 20.8 µM (inactive) | 18.5 µM (inactive) | 38.5 µM (inactive) | 6.75 µM (inactive) | 14.2 µM (inactive) | 24.7 µM (inactive) | 26.2 µM (inactive) | 13.9 µM (inactive) | 27.7 µM (inactive) | – | 63.4 µM (inactive) | – | 28.6 µM (inactive) | 46 µM (inactive)
7 | O=c1[nH]c2cccccc-2c1-c1nc2ccccc2[nH]1 | 18.2 µM (inactive) | 20.4 µM (inactive) | – | 38.7 µM (inactive) | 21.9 | 25.8 µM (inactive) | 34.5 µM (inactive) | – | – | > 10 µM (inactive) | > 100 µM (inactive) | – | 14.9 µM (inactive) | 22.4 µM (inactive) | 12.2 µM (inactive) | 69.5 µM (inactive) | 31.1 µM (inactive) | – | –
8 | CCOC(=O)c1cc2c(cn1)[nH]c1cccc(N)c12 | > 100 µM (inactive) | > 100 µM (inactive) | – | > 100 µM (inactive) | – | > 100 µM (inactive) | > 100 µM (inactive) | – | – | > 100 µM (inactive) | > 100 µM (inactive) | – | > 100 µM (inactive) | > 100 µM (inactive) | > 100 µM (inactive) | > 100 µM (inactive) | > 100 µM (inactive) | – | –
9 | COc1ccccc1C(N)c1ccccc1 (stereo not drawn) | > 100 µM (inactive) | – | – | > 100 µM (inactive) | > 100 | 36 µM (inactive) | > 100 µM (inactive) | – | – | > 100 µM (inactive) | > 100 µM (inactive) | – | > 100 µM (inactive) | > 100 µM (inactive) | 95.9 µM (inactive) | > 100 µM (inactive) | > 100 µM (inactive) | – | –
10 | CCCCCCCCCCCCCCCC[N+](C)(C)Cc1ccc(C[N+](C)(C)CCCCCCCCCCCCCCCC)cc1 | 2.5 µM (inactive) | 10.1 µM (inactive) | – | 3.72 µM (inactive) | 3.66 | – | 2.06 µM (inactive) | – | – | 2.54 µM (inactive) | 1.91 µM (inactive) | – | 2.38 µM (inactive) | 2.02 µM (inactive) | 1.94 µM (inactive) | 2.99 µM (inactive) | 25.8 µM (inactive) | – | –
11 | COc1cc(/C=C\c2ccc(OC(C)=O)cc2)cc(OC)c1OC | 3.56 µM (inactive) | 29.1 µM (inactive) | – | 8.13 µM (inactive) | – | 20 µM (inactive) | 2.59 µM (inactive) | – | – | 3.29 µM (inactive) | 62.7 µM (inactive) | – | 9.59 µM (inactive) | 2.26 µM (inactive) | 2.2 µM (inactive) | 3.36 µM (inactive) | 4.08 µM (inactive) | – | –
12 | CCCCn1c(-c2ccccc2)cs/c1=N\N=C1C=C(C(C)(C)C)C(=O)C(C(C)(C)C)=C1 | > 100 µM (inactive) | > 100 µM (inactive) | – | > 100 µM (inactive) | > 100 | – | > 100 µM (inactive) | – | – | > 100 µM (inactive) | > 100 µM (inactive) | – | > 100 µM (inactive) | > 100 µM (inactive) | – | > 100 µM (inactive) | > 100 µM (inactive) | – | –
13 | OCCN(CCO)c1cccc(N(CCO)CCO)n1 | > 100 µM (inactive) | > 100 µM (inactive) | – | > 10 µM (inactive) | > 100 | > 100 µM (inactive) | > 100 µM (inactive) | – | – | > 100 µM (inactive) | – | – | > 100 µM (inactive) | – | > 100 µM (inactive) | > 100 µM (inactive) | > 100 µM (inactive) | – | –
14 | COC1CC(OC)C2OC(c3ccccc3)OCC2O1 (stereo not drawn) | > 100 µM (inactive) | – | – | > 100 µM (inactive) | > 100 | – | > 100 µM (inactive) | – | – | > 100 µM (inactive) | > 100 µM (inactive) | – | – | > 100 µM (inactive) | > 100 µM (inactive) | > 100 µM (inactive) | > 100 µM (inactive) | – | –
15 | Cn1ncc2cc3c(Nc4ccc(Cl)cc4)cccc3nc21 | 21.6 µM (inactive) | 15.5 µM (inactive) | – | 21 µM (inactive) | 14.1 | 6.67 µM (inactive) | 20 µM (inactive) | – | – | 12.7 µM (inactive) | > 10 µM (inactive) | – | 15.8 µM (inactive) | – | 19.4 µM (inactive) | 13.9 µM (inactive) | 7.4 µM (inactive) | – | –
16 | Cc1cccc2c(O)cc(=O)oc12 | > 100 µM (inactive) | – | – | – | – | – | > 100 µM (inactive) | – | – | > 100 µM (inactive) | > 100 µM (inactive) | – | > 100 µM (inactive) | > 100 µM (inactive) | > 100 µM (inactive) | > 100 µM (inactive) | > 100 µM (inactive) | – | –
17 | Nc1ccn(CCOC(c2ccccc2)P(=O)(O)O)c(=O)n1 (stereo not drawn) | > 100 µM (inactive) | > 100 µM (inactive) | – | > 100 µM (inactive) | > 100 | – | – | – | – | > 100 µM (inactive) | > 100 µM (inactive) | – | > 100 µM (inactive) | > 100 µM (inactive) | 12.2 µM (inactive) | > 100 µM (inactive) | > 100 µM (inactive) | – | –
18 | NS(=O)(=O)c1cc2c(cc1Cl)NC(C(=O)c1cc(=O)c3ccc(O)cc3o1)=NS2(=O)=O | > 100 µM (inactive) | > 100 µM (inactive) | – | > 100 µM (inactive) | > 100 | > 100 µM (inactive) | > 100 µM (inactive) | – | – | > 100 µM (inactive) | > 100 µM (inactive) | – | > 100 µM (inactive) | > 100 µM (inactive) | 97.7 µM (inactive) | > 100 µM (inactive) | > 100 µM (inactive) | – | –
19 | CCOC(=O)c1[nH]c(-c2[nH]c(-c3[nH]c(-c4[nH]c(C(=O)OCC)c(C)c4C(=O)OCC)c(C(=O)OCC)c3C)c(C)c2C(=O)OCC)c(C(=O)OCC)c1C | > 100 µM (inactive) | > 100 µM (inactive) | > 100 µM (inactive) | > 100 µM (inactive) | > 100 | – | > 100 µM (inactive) | > 100 µM (inactive) | > 100 µM (inactive) | > 100 µM (inactive) | > 100 µM (inactive) | > 100 µM (inactive) | > 100 µM (inactive) | > 100 µM (inactive) | – | > 100 µM (inactive) | – | > 100 µM (inactive) | > 100 µM (inactive)
20 | Cc1ccc(NC(=O)CCC(=O)C2CC(=O)CC/C2=N\NC(=O)c2cc3ccccc3cc2O)cc1C (stereo not drawn) | 25.8 µM (inactive) | 19 µM (inactive) | – | 18.7 µM (inactive) | 14.7 | 14.3 µM (inactive) | 8.18 µM (inactive) | – | – | 14.8 µM (inactive) | 22 µM (inactive) | – | 17.3 µM (inactive) | 30.1 µM (inactive) | 17.1 µM (inactive) | 25.6 µM (inactive) | 4.13 µM (inactive) | – | –
21 | O=C(O)C12C=CC(C1)c1ccccc12 (stereo not drawn) | > 100 µM (inactive) | > 100 µM (inactive) | – | > 100 µM (inactive) | > 100 | > 100 µM (inactive) | > 100 µM (inactive) | – | – | > 100 µM (inactive) | > 100 µM (inactive) | – | > 100 µM (inactive) | – | – | > 100 µM (inactive) | > 100 µM (inactive) | – | –
22 | COc1ccc(C(=O)/C=C/c2ccc(OCCCOc3ccc(/C=C/C(=O)c4ccc(OC)c(OC)c4)cc3)cc2)cc1OC | > 100 µM (inactive) | > 100 µM (inactive) | > 100 µM (inactive) | > 100 µM (inactive) | > 100 | – | > 100 µM (inactive) | > 100 µM (inactive) | > 100 µM (inactive) | – | – | > 100 µM (inactive) | > 100 µM (inactive) | > 100 µM (inactive) | > 100 µM (inactive) | > 100 µM (inactive) | > 100 µM (inactive) | > 100 µM (inactive) | > 100 µM (inactive)
